Measurements published in US12472187B2, “Texaphyrin-Pt(IV) conjugates and compositions for use in overcoming platinum resistance” (BOARD OF REGENTS, THE UNIVERSITY OF TEXAS SYSTEM, priority 2014, dated 2025).

Key:
2780CP cells [1] = test: MTT (tetrazolium dye reduction) proliferation assay, cisplatin resistant 2780CP cells; type: cell-based, human; conditions: ratio of IC50 in 2780CP to A2780; rows for cisplatin and 2 rest on cited IC50
Description: The A2780 line was established from a patient's biopsy prior to initiation of any chemotherapeutic regimen (Godwin, et al., 1992). The resistant cell line, 2780CP, used in this study, was established from A2780 cells, as described by Siddik, et al., 1998. The two cell lines have wild-type p53 genotype and/or function. Cells were grown in RPMI containing 10% fetal calf serum and antibiotics (100 μg/mL streptomycin and 100 U/mL penicillin).
The proliferation of exponential phase cultures of A2780 and 2780CP cells was assessed by tetrazolium dye reduction (Mosmann, 1983, which is incorporated herein by reference). […] After a total incubation time of 6 days at 37° C., 50 μL of a stock solution at 3 mg/ml of the tetrazolium dye, 3-(4,5-dimethylthiazol-2-yl)-2,5-diphenyltetrazolium bromide (MTT, Sigma Chemical) were added to each well, the plates incubated at 37° C. for 4 hours, whereupon the medium was removed, the formazan product dissolved in DMSO (50-100 μL) and absorbance values at 570 nm was measured using a microplate reader (Molecular Devices, Sunnyvale, CA). Absorbance values were corrected for background and then normalized to wells containing untreated cells to allow plate-to-plate comparisons. […]
The anti-proliferative effects of conjugates 4 and 5 were assessed with platinum sensitive human ovarian A2780 cells and the isogenic cisplatin resistant 2780CP cell line. […]

A2780 cells = conditions: platinum sensitive A2780 cells; data from Arambula, et al., 2012; cited from earlier work
2780CP cells [2] = conditions: cisplatin resistant 2780CP cells; data from Arambula, et al., 2012; cited from earlier work
A2780 cancer cells = test: MTT antiproliferative assay of Pt(IV), MGd and MGd+Pt(IV) on A2780 cancer cells; type: cell-based; conditions: agent alone, read-out: IC50 (growth inhibition), single agent
Description: A2780 cancer cells were incubated (37° C., 5% CO2 atmosphere, dark) in 96-wells plates at a concentration of 600 cells/well, in a culture medium containing 10% fetal bovine serum and supplemented with penicillin and streptomycin. After 15 h, drugs (Pt(IV), MGd, MGd+Pt(IV)) were added to cells (gradient of concentration, from 0 to 200 μM, 3-fold dilutions) and plates were incubated for five more days using the above conditions. After five days, MTT dye was added in each well (0.15 mg/well) and plates were left for 4 hours in the incubator. Then, supernatant was carefully removed and 50 μL of DMSO were added to dissolve MTT purple formazan crystals. The absorbance was read at 570 nm using a plate reader.

SMILES | Resistance factor = IC50(2780CP)/IC50(A2780) (2780CP cells [1]) | IC50 (A2780 cells) [µM] | IC50 (2780CP cells [2]) [µM] | IC50 (A2780 cancer cells) [µM]
N.N.[Cl][Pt][Cl] [Cisplatin] | 18.25 | 0.33 | 7.3 | –
CC(=O)[O-].CC(=O)[O-].CCc1c(CC)c2cc3nc(cnc4cc(OCCOCCOCCOC)c(OCCOCCOCCOC)cc4ncc4nc(cc1[n-]2)C(CCCO)=C4C)C(C)=C3CCCO.[Gd+3] [Compound 1, motexafin gadolinium] | – | – | – | 78
